Measured values as given in PMC2954458 (Biochemistry, 2010).

Molecular target: Pdr5 (Saccharomyces cerevisiae, UniProt P33302)
Test: ATPase assay, purified plasma membrane vesicles, Δpdr5 background subtracted
Assay type: biochemical
Conditions: 100 mM MOPS pH 7.4, 50 mM KCl, 10 mM MgCl2, 5 mM NaN3, 35 °C

Sequence of Pdr5 (P33302 whole entry): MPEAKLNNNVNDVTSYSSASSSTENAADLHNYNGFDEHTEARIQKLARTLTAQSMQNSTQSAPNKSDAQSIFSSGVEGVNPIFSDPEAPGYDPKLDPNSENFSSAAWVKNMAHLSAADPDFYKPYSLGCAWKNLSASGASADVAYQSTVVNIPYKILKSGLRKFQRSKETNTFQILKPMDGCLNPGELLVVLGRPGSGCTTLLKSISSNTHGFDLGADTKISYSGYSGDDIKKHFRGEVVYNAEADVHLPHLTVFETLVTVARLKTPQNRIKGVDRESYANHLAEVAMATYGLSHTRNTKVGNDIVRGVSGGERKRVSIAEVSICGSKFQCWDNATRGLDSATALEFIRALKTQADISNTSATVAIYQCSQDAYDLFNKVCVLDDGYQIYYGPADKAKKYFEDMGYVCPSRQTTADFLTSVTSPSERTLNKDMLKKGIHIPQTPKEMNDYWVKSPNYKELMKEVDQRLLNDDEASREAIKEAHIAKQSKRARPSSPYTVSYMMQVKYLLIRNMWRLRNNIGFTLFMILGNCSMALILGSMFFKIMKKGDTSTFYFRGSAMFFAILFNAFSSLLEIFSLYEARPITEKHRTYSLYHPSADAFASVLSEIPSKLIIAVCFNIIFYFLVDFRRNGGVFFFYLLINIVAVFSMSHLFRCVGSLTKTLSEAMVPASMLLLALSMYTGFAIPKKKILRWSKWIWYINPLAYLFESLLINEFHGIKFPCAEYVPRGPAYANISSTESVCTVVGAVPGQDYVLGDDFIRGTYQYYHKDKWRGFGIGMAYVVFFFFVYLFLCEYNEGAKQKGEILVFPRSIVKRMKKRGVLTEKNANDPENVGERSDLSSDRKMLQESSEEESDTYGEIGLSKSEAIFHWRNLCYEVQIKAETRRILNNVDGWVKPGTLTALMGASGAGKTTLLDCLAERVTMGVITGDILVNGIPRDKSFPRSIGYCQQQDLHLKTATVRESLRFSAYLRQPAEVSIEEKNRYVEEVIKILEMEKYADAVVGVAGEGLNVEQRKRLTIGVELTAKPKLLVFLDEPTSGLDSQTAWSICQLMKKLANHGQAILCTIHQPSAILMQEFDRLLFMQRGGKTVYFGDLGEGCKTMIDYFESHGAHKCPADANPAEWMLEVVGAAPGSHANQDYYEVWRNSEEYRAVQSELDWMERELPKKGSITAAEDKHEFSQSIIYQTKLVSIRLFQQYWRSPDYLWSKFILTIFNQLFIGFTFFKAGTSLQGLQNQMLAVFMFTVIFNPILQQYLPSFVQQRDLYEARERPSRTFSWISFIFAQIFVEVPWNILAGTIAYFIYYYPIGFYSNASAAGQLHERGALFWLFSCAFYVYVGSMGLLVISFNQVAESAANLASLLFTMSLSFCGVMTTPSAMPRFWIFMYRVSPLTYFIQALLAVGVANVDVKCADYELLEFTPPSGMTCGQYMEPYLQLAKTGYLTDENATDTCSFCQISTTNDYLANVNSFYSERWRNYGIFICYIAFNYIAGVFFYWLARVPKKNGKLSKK

Nc1ncnc2c1ncn2[C@@H]1O[C@H](COP(=O)(O)OP(=O)(O)OP(=O)(O)O)[C@@H](O)[C@H]1O [ATP]
Km: There was little or no difference in the observed Kms
